Assays:
[1] = system: HT-29CL.19A cells; assay: Transepithelial (apical to basolateral) HRP permeability of HT-29CL.19A monolayers, hyperpermeability induced by PDB; format: cell-based, human; conditions: PDB 1 mmol/l
Excerpt: The macromolecular permeability of the intestinal epithelium is controlled by the passage through intercellular tight junctions in the paracellular channels. Opening of these tight junctions is controlled by the epithelial cells in response to various intercellular mediators, such as Ca, cyclic AMP, G proteins and protein kinase c. The human intestinal cell line HT-29CL.19A is becoming increasingly more important for studying this paracellular permeability in vitro. See also the abovementioned article in J. Parenteral Enteral Nutrition, that is incorporated herein by reference.
For the present examples, confluent monolayers of HT-29CL19A cells were cultured on permeability filters. […] The transepithelial permeability from apical to basolateral was determined for horseradish peroxidase (HRP) with the aid of an enzyme assay. Phorbol 12,13-dibutyrate (PDB, 1 mmol/l) was used to increase the permeability. […] All agents were added to the apical compartment.

[2] = cited from earlier work
[3] = system: HT-29CL.19A cells; conditions: Kouznetsova et al. J. Parenteral Enteral Nutrition 23 (1999) 136-139; cited from earlier work

## CCCC(=O)O[C@@H]1[C@@H](C)[C@@]2(O)[C@@H](C=C(CO)C[C@]3(O)C(=O)C(C)=C[C@@H]23)[C@@H]2C(C)(C)[C@]12OC(=O)CCC [PDB, Phorbol 12,13-dibutyrate]
[1]; apical, after 150-279 min stimulation, p<0.001
  increase of HRP flux compared with the control: 3 fold

## N[C@H](C(=O)O)[C@@H]1CC(Cl)=NO1 [Acivicin, acivicin]
[1]; in the presence of glutamate
  effect of acivicin on the reduction in PDB-induced hyperpermeability in the presence of glutamate: This effect did not occur
[1]; in the presence of glutamine
  effect of acivicin on the glutamine-mediated reduction in PDB-induced hyperpermeability: prevented the glutamine-mediated reduction in the hyperpermeability

## N[C@@H](CCC(=O)O)C(=O)O [Glutamate, glutamate]
[1]; glutamate 0.6 mmol/l, apical, p<0.001
  effect on PDB-induced hyperpermeability (HRP flux): had the same effect
[1]; glutamate 0.6 mmol/l, apical, p<0.001, listed as glutamate
  effect on PDB-induced hyperpermeability (HRP flux): reduces the macromolecular hyperpermeability

## NC(=O)CC[C@H](N)C(=O)O [Glutamine, glutamine]
[2]
  solubility: poor solubility
[3]
  effect on macromolecular hyperpermeability of intestinal cells induced by phorbol 12,13-dibutyrate: able to lower the macromolecular hyperpermeability
[1]; glutamine added to apical compartment
  effect on PDB-induced hyperpermeability (HRP flux): reduces this hyperpermeability appreciably

Reference: patent US20030138476A1, “Use of glutamate and/or a glutamate precursor for the preparation of a nutritional or pharmaceutical preparation for the treatment or prevention of hyperpermeability or undesired permeability of the intestinal wall” (priority 2000, published 2003)
